# Laboratory results from patent publication US20240269304A1, “BCL-XL INHIBITOR ANTIBODY-DRUG CONJUGATES AND METHODS OF USE THEREOF” (Novartis AG, priority 2020, published 2024).
# Like-named read-outs stand apart in the source and are kept apart here.
# Columns and labels:
# [1] = ADC stability study: % aggregates by SEC after incubation at 37° C. for 168 h; type: physicochemical
# Protocol: Size Exclusion Chromatography: Size exclusion chromatography (SEC) was performed for quality control of each ADCs by measuring monomer percentage of the conjugate. The analysis was performed on analytical column Superdex 200 Increase 5/150 GL (GE Healthcare, 28990945) in isocratic conditions 100% PBS pH7.4 (Sigma Life Science, P3813, 10PAK), flow 0.45 mI/min for 12 minutes. The % aggregate fraction of the conjugate sample was quantified based on the peak area absorbance at 280 nm. Its calculation was based on the ratio between the high molecular weight eluent at 280 nm divided by the sum of peak area absorbance at the same wavelength of the high molecular weight and monomeric eluents multiplied by 100.
# Characterization of the exemplary ADCs is summarized in Table 13 (coupling, LC-MS method, OAR, aggregation status, ADO stability and yield). The average OAR values were determined using the above LC-MS methods and the percentage of aggregates was measured by size exclusion chromatography (SEC) during the quality control of the ADO and after the stability study (incubation at 37° C. for 168 h).
# [2] = test system: H1650 cells; test: CellTiterGlo (CTG) cell viability, 3D, 120 h, H1650 (Example 8); type: cell-based, human
# [3] = test system: ALL-SIL cells; test: CellTiterGlo (CTG) cell viability, 72 h, ALL-SIL (Example 8); type: cell-based
# Protocol: ALL-SIL cells were cultivated in RPMI supplemented with 20% heat inactivated fetal bovine serum, penicillin (100 IU/ml), streptomycin (100 μg/ml) and L-glutamine (2 mM). Cell lines were cultured at 37° C. in a humidified atmosphere containing 5% CO2. Cells were seeded in 96 well clear bottom plates (96 well clear-bottom, white, Corning reference 3903) and exposed to the payloads or ADCs for 72 h (serially diluted; 9 concentrations each, triplicates). Effects of payloads or ADCs on cell viability were assessed after 3 days of incubation at 37° C./5% CO2 by quantification of cellular ATP levels using CellTiterGlo at 75 μL reagent/well. All the conditions were tested in triplicates. Luminescence was quantified on a multipurpose plate reader. IC50s were calculated using standard four-parametric curve fitting. […] Each experiment was performed at least twice, with results being reproducible.
# [4] = test system: DND-41 cells; test: CellTiterGlo (CTG) cell viability, 72 h, DND-41 (Example 8); type: cell-based
# Protocol: DND-41 cells were cultivated in RPMI supplemented with 10% heat inactivated fetal bovine serum, penicillin (100 IU/ml), streptomycin (100 μg/ml) and L-glutamine (2 mM). Cell lines were cultured at 37° C. in a humidified atmosphere containing 5% CO2. […] Effects of payloads or ADCs on cell viability were assessed after 3 days of incubation at 37° C./5% CO2 by quantification of cellular ATP levels using CellTiterGlo at 75 μL reagent/well. All the conditions were tested in triplicates. Luminescence was quantified on a multipurpose plate reader. IC50s were calculated using standard four-parametric curve fitting.
# [5] = H1650 3D, experiment n1, read-out: H1650 3D CTG IC50 n1
# [6] = H1650 3D, experiment n2, read-out: H1650 3D CTG IC50 n2
# [7] = H1650 3D, mean of n1 and n2, read-out: H1650 3D CTG IC50 Mean of n1 and n2
# [8] = experiment n1, read-out: ALLSIL CTG 72 h IC50 nM n1
# [9] = experiment n2, read-out: ALLSIL CTG 72 h IC50 nM n2
# [10] = mean of n1 and n2, read-out: ALLSIL CTG 72 h IC50 nM Mean of n1 and n2
# [11] = DND41, experiment n1, read-out: DND41 CTG 72 h IC50 nM n1
# [12] = DND41, experiment n2, read-out: DND41 CTG 72 h IC50 nM n2
# [13] = DND41, mean of n1 and n2, read-out: DND41 CTG 72 h IC50 nM Mean of n1 and n2
# [14] = Homo sapiens, NCI-H1650, H1650 3D, experiment n1, read-out: H1650 3D CTG IC50 n1
# [15] = Homo sapiens, NCI-H1650, H1650 3D, experiment n2, read-out: H1650 3D CTG IC50 n2
# [16] = Homo sapiens, NCI-H1650, H1650 3D, mean of n1 and n2, read-out: H1650 3D CTG IC50 Mean of n1 and n2
"IC50 [2, 14] [nM]","IC50 [2, 15] [nM]","IC50 [2, 16] [nM]",SMILES,Stab w1 +37° C. % Agg (by SEC) [1] [%],"IC50 [2, 5] [nM]","IC50 [2, 6] [nM]","IC50 [2, 7] [nM]","IC50 [3, 8] [nM]","IC50 [3, 9] [nM]","IC50 [3, 10] [nM]","IC50 [4, 11] [nM]","IC50 [4, 12] [nM]","IC50 [4, 13] [nM]"
–,–,–,Cc1cc(N(C)c2ccc(-c3cnn(C[C@]45C[C@]6(C)C[C@](C)(C4)C[C@@](OCCN(CCCO)C(=O)OCc4ccc(NC(=O)[C@H](CCCNC(N)=O)CC(=O)[C@@H](NC(=O)CCOCCN7C(=O)CC(C)C7=O)C(C)C)cc4)(C6)C5)c3C)c(C(=O)O)n2)nnc1Nc1nc2ccccc2s1 (mixture of isomers) [Ab C - L9C-P26],3,0.12,0.11,0.12,–,–,–,–,–,–
–,–,–,Cc1c(Nc2nc3ccccc3s2)nnc2c1CCCN2c1nc(C(=O)[O-])c(CCCOc2ccc(C#CC[N+](C)(C)Cc3ccc(NC(=O)[C@H](CCCNC(N)=O)NC(=O)[C@@H](NC(=O)CCOCCN4C(=O)CC(C)C4=O)C(C)C)cc3)cc2F)[nH]1 (some centres unmarked) [Ab C - L9A-P1],6,0.49,0.33,0.41,–,–,–,–,–,–
–,–,–,Cc1c(Nc2nc3ccccc3s2)nnc2c1CCCN2c1nc(C(=O)[O-])c(CCCOc2ccc(C#CC(C)N3CC[N+](C)(Cc4ccc(NC(=O)[C@H](CCCNC(N)=O)NC(=O)[C@@H](NC(=O)CCOCCN5C(=O)CC(C)C5=O)C(C)C)cc4)CC3)cc2F)s1 (some centres unmarked) [Ab C - L9A-P8],7,0.14,0.3,0.22,–,–,–,–,–,–
–,–,–,Cc1cc(N(C)c2nc(C(=O)[O-])c(CCCOc3ccc(C#CC(C)[N+](C)(C)Cc4ccc(NC(=O)[C@H](CCCNC(N)=O)NC(=O)[C@@H](NC(=O)CCOCCN5C(=O)CC(C)C5=O)C(C)C)cc4)cc3F)s2)nnc1Nc1nc2ccccc2s1 (some centres unmarked) [Ab C - L9A-P11],2.4,0.5,0.5,0.5,–,–,–,–,–,–
–,–,–,CC[N+](C)(CC#Cc1ccc(OCCCc2sc(N3CCCc4c3nnc(Nc3nc5ccccc5s3)c4C)nc2C(=O)O)c(F)c1)Cc1ccc(NC(=O)[C@H](CCCNC(N)=O)NC(=O)[C@@H](NC(=O)CCOCCN2C(=O)CC(C)C2=O)C(C)C)cc1 (some centres unmarked) [Ab C - L9A-P13],0.2,0.9,0.7,0.8,–,–,–,–,–,–
–,–,–,CC[N+](CC)(CC#Cc1ccc(OCCCc2sc(N3CCCc4c3nnc(Nc3nc5ccccc5s3)c4C)nc2C(=O)[O-])c(F)c1)Cc1ccc(NC(=O)[C@H](CCCNC(N)=O)NC(=O)[C@@H](NC(=O)CCOCCN2C(=O)CC(C)C2=O)C(C)C)cc1 (some centres unmarked) [Ab C - L9A-P14],7,1.3,0.4,0.85,–,–,–,–,–,–
–,–,–,Cc1c(NC2Nc3ccccc3S2)nnc2c1CCCN2c1nc(C(=O)[O-])c(CCCOc2ccc(C#CC[N+]3(Cc4ccc(NC(=O)[C@H](CCCNC(N)=O)NC(=O)[C@@H](NC(=O)CCCCCN5C(=O)CC(C)C5=O)C(C)C)cc4)CCCCC3)cc2F)s1 (some centres unmarked) [Ab C - L9A-P18],3,1.2,1.25,1.23,–,–,–,–,–,–
–,–,–,C=C(C)CCCC[C@](C)(CC(=C)[C@@](C)(CC(=C)CCCCCC1C(=C)CC(C)C1=C)C(C)C)C(=C)Cc1ccc(CC(C)(C)CCC[C@]23C[C@]4(C)C[C@](C)(C2)C[C@@](CC2C=CC(c5ccc(C6CCCc7c6ccc(CC6=Cc8ccccc8C6)c7C)cc5C(=C)C)=C2C)(C4)C3)cc1 (some centres unmarked) [Ab C - L9A-P27],16,0.3,0.22,0.26,–,–,–,–,–,–
–,–,–,CC(=O)CCCC[C@](C)(CC(=O)[C@@](C)(CC(=O)CCCCCC1C(=O)CC(C)C1=O)C(C)C)C(=O)Cc1ccc(CC(C)(C)CC#Cc2ccc(CCCCC3=C(C(C)=O)C=C(C4CCCc5c4ccc(CC4=Cc6ccccc6C4)c5C)C3)cc2)cc1 (some centres unmarked) [Ab C - L9A-P28],15,0.21,0.2,0.21,–,–,–,–,–,–
–,–,–,Cc1c(Nc2nc3ccccc3s2)nnc2c1CCCN2c1nc(C(=O)O)c(CCCOc2ccc(C#CCN(CCN(C)C)C(=O)OCc3ccc(NC(=O)[C@H](CCCNC(N)=O)NC(=O)[C@@H](NC(=O)CCOCCN4C(=O)CC(C)C4=O)C(C)C)cc3)cc2F)s1 (some centres unmarked) [Ab C - L9C-P12],4,0.6,0.9,0.75,–,–,–,–,–,–
–,–,–,Cc1c(Nc2nc3ccccc3s2)nnc2c1CC(OCCN(C)C(=O)OCc1ccc(NC(=O)[C@H](CCCNC(N)=O)NC(=O)[C@@H](NC(=O)CCOCCN3C(=O)CC(C)C3=O)C(C)C)cc1)CN2c1nc(C(=O)O)c(CCCOc2ccc(C#CCN(C)C)cc2F)s1 (some centres unmarked) [Ab C - L9C-P16],2.4,3.9,4.2,4.05,–,–,–,–,–,–
3.15,5.3,4.23,"Cc1c(Nc2nc3ccccc3s2)nnc2c1CCCN2c1nc(C(=O)O)c(CCCOc2ccc(C#CCN3CCNCC3)cc2F)s1 [P17, 2-[3-(1,3-Benzothiazol-2-ylamino)-4-methyl-6,7-dihydro-5H-pyrido[2,3-c]pyridazin-8-yl]-5-[3-[2-fluoro-4-(3-piperazin-1-ylprop-1-ynyl)phenoxy]propyl]thiazole-4-carboxylic acid]",–,–,–,–,0.13,0.26,0.2,0.4,0.7,0.55
2.89,1.43,2.16,"Cc1c(Nc2nc3ccccc3s2)nnc2c1CCCN2c1ccc(-c2cnn(C[C@]34C[C@]5(C)C[C@](C)(C3)C[C@@](OCCNCC[C@H](O)CO)(C5)C4)c2C)c(C(=O)O)n1 [P19, 6-{3-[(1,3-benzothiazol-2-yl)amino]-4-methyl-6,7-dihydropyrido[2,3-c]pyridazin-8(5H)-yl}-3-(1-{[3-(2-{[(3S)-3,4-dihydroxybutyl]amino}ethoxy)-5,7-dimethyladamantan-1-yl]methyl}-5-methyl-1H-pyrazol-4-yl)pyridine-2-carboxylic acid]",–,–,–,–,4.02,3.5,3.76,10.8,7.2,9
0.36,0.5,0.43,"Cc1c(Nc2nc3ccccc3s2)nnc2c1CCCN2c1ccc(-c2cnn(CC34CC5(C)CC(C)(C3)CC(OCCN3CCN(C)CC3)(C5)C4)c2C)c(C(=O)O)n1 [P20, 6-[3-(1,3-benzothiazol-2-ylamino)-4-methyl-6,7-dihydro-5H-pyrido[2,3-c]pyridazin-8-yl]-3-[1-[[3,5-dimethyl-7-[2-(4-methylpiperazin-1-yl)ethoxy]-1-adamantyl]methyl]-5-methyl-pyrazol-4-yl]pyridine-2-carboxylic acid]",–,–,–,–,0.02,0.08,0.05,0.38,0.24,0.31
0.77,0.79,0.78,"Cc1c(Nc2nc3ccccc3s2)nnc2c1CCCN2c1ccc(-c2cnn(C[C@]34C[C@]5(C)C[C@](C)(C3)C[C@@](OCCNCCCCO)(C5)C4)c2C)c(C(=O)O)n1 [P22, 6-[3-(1,3-benzothiazol-2-ylamino)-4-methyl-6,7-dihydro-5H-pyrido[2,3-c]pyridazin-8-yl]-3-[1-[[3-[2-(4-hydroxybutylamino)ethoxy]-5,7-dimethyl-1-adamantyl]methyl]-5-methyl-pyrazol-4-yl]pyridine-2-carboxylic acid]",–,–,–,–,0.26,0.5,0.38,0.45,0.26,0.36
